Laboratory results: patent publication US20150089682A1, “ALS Inhibitor Herbicide Tolerant B. Napus Mutants” (priority 2012, published 2015)
Residue numbers refer to the chain shown, from its start. Numbers in names are those of the source.

B1: Wild-type: Arabidopsis thaliana wild-type ALS expressed in Escherichia coli, crude protein extract (protein, UniProt P17597 56-670, looked up)
Acetolactate synthase, …: SSSPSSISAVLNTTTNVTTTPSPTKPTKPETFISRFAPDQPRKGADILVEALERQGVETVFAYPGGASMEIHQALTRSSSIRNVLPRHEQGGVFAAEGYARSSGKPGICIATSGPGATNLVSGLADALLDSVPLVAITGQVPRRMIGTDAFQETPIVEVTRSITKHNYLVMDVEDIPRIIEEAFFLATSGRPGPVLVDVPKDIQQQLAIPNWEQAMRLPGYMSRMPKPPEDSHLEQIVRLISESKKPVLYVGGGCLNSSDELGRFVELTGIPVASTLMGLGSYPCDDELSLHMLGMHGTVYANYAVEHSDLLLAFGVRFDDRVTGKLEAFASRAKIVHIDIDSAEIGKNKTPHVSVCGDVKLALQGMNKVLENRAEELKLDFGVWRNELNVQKQKFPLSFKTFGEAIPPQYAIKVLDELTDGKAIISTGVGQHQMWAAQFYNYKKPRQWLSSGGLGAMGFGLPAAIGASVANPDAIVVDIDGDGSFIMNVQELATIRVENLPVKVLLLNNQHLGMVMQWEDRFYKANRAHTFLGDPAQEDEIFPNMLLFAAACGIPAARVTKKADLREAIQTMLDTPGPYLLDVICPHQEHVLPMIPSGGTFNDVITEGDGRIKY
B2: W574L: Arabidopsis thaliana W574L-mutant ALS expressed in Escherichia coli, crude protein extract (protein, UniProt P17597 56-670, looked up, variant W574L)
Acetolactate synthase, …: B1 Acetolactate synthase, … with W519L
B3: P197S: Arabidopsis thaliana P197S-mutant ALS expressed in Escherichia coli, crude protein extract (protein, UniProt P17597 56-670, looked up, variant P197S)
Acetolactate synthase, …: B1 Acetolactate synthase, … with P142S
B4: S653N: Arabidopsis thaliana S653N-mutant ALS expressed in Escherichia coli, crude protein extract (protein, UniProt P17597 56-670, looked up, variant S653N)
Acetolactate synthase, …: B1 Acetolactate synthase, … with S598N

Columns and labels:
[1] = test system: spring oilseed rape variety ABILITY; experiment: Herbicide tolerance in the field, visible phytotoxicity; assay type: in vivo, Brassica napus; conditions: ABILITY, field, 18 days after application, 0%=no phytotoxic effects, 100%=all plants killed
Source text: (§1) Seeds of spring oilseed rape homozygous for HETO108 and HETO121 were sown in a field according to typical practical agricultural methods. The registered spring oilseed rape variety ABILITY served as a comparison. All plants were cultivated up to BBCH stage 14 (four true leaves of the oilseed rape plants). Afterwards, the herbicides mentioned in table 2 have been applied to the oilseed rape plants by using specific spray equipment for small plot applications. The water amount used was 200 L/ha.

[2] = test system: spring oilseed rape homozygous for HETO108 and HETO121; experiment: as above; assay type: in vivo, Brassica napus; conditions: HETO108-HETO121, field, 18 days after application, 0%=no phytotoxic effects, 100%=all plants killed
Source text: as §1

[3] = molecular target: T1, Arabidopsis thaliana W574L-mutant ALS (Arabidopsis thaliana, UniProt P17597, E575Q/W574L); experiment: biochemical; conditions: for IC50: read-out: pI50 W574L (converted); for Resistance Factor W574L: relative to WT, from measured pI50
T1 construct: vector-encoded N-terminal fusion of pET-32a(+) (Trx/His/S tag by own knowledge); made in house; host or cells: Escherichia coli AD494
Protocol: (§2) Bacteria were grown at 37° C. in LB-medium containing 100 mg/1 carbenicillin and 25 mg/1 canamycin, induced with 1 mM isopropyl-β-D-thiogalactopyranoside at an OD600 of 0.6, cultivated for 16 hours at 18° C. and harvested by centrifugation. Bacterial pellets were resusupended in 100 mM sodium phosphate buffer pH 7.0 containing 0.1 mM thiamine-pyrophosphate, 1 mM MgCl2, and 1 μM FAD at a concentration of 1 gram wet weight per 25 ml of buffer and disrupted by sonification. The crude protein extract obtained after centrifugation was used for ALS activity measurements.
(§3) Assays were initiated by adding enzyme and terminated after 75 min incubation at 30° C. by the addition to 40 μl 0.5 M H2SO4. […] Reaction velocities were tiffed to the Michalis-Menten equation with the XLFit curve fitting program.

[4] = molecular target: T2, Arabidopsis thaliana S653N-mutant ALS (Arabidopsis thaliana, UniProt P17597, E575Q/S653N); experiment: biochemical; conditions: for IC50: read-out: pI50 S653N (converted); for Resistance Factor S653N: relative to WT, from measured pI50
T2 construct: vector-encoded N-terminal fusion of pET-32a(+) (Trx/His/S tag by own knowledge); made in house; host or cells: Escherichia coli AD494
Protocol: as §2, §3

[5] = molecular target: T3, Arabidopsis thaliana P197S-mutant ALS (Arabidopsis thaliana, UniProt P17597, E575Q/P197S); experiment: biochemical; conditions: for IC50: read-out: pI50 P197S (converted); for Resistance Factor P197S: relative to WT, from measured pI50
T3 construct: vector-encoded N-terminal fusion of pET-32a(+) (Trx/His/S tag by own knowledge); made in house; host or cells: Escherichia coli AD494
Protocol: as §2, §3

[6] = molecular target: T4, Arabidopsis thaliana wild-type ALS (Arabidopsis thaliana, UniProt P17597, E575Q); experiment: biochemical; conditions: measured, crude extract of E. coli expressed enzyme; for IC50: read-out: pI50 WT (converted)
T4 construct: vector-encoded N-terminal fusion of pET-32a(+) (Trx/His/S tag by own knowledge); made in house; host or cells: Escherichia coli AD494
Protocol: as §2, §3

[7] = molecular target: T5, mixture of S653N and W574L ALS enzymes (Arabidopsis thaliana, UniProt P17597); assay type: biochemical; conditions: for pI50 S653N & W574L: calculated for a mixture of equal activities of the two enzymes, pI50=3.0 used where measured <4; for Resistance Factor S653N & W574L: relative to WT, calculated
T5 construct: crude E. coli extract was used
Protocol: as §3
(§4) To characterize the response of a mixture of two different ALS enzymes to a given ALS inhibitor the following assumptions were made: • a inhibition is competitive and reversible • b. in the absence of inhibitor, equal activities of the ALS (mutant) enzymes 1 and 2 are present
(§5) Using experimentally determined pI50-values for various ALS-inhibiting herbicides, enzyme activities at different inhibitor concentrations were calculated (see Theory) for each ALS enzyme. Total ALS activity at any given inhibitor concentration is the sum of the activity of (mutant) enzyme 1 and (mutant) enzyme 2. If the experimentally determined pI50-value was <4, pI50=3.0 was used for the calculations. If the calculated pI50-value was 3.0, the pI50 was redefined as <4.

[8] = molecular target: T6, mixture of P197S and W574L ALS enzymes (Arabidopsis thaliana, UniProt P17597); assay type: biochemical; conditions: for pI50 P197S & W574L: calculated for a mixture of equal activities of the two enzymes, pI50=3.0 used where measured <4; for Resistance Factor P197S & W574L: relative to WT, calculated
T6 construct: crude E. coli extract was used
Protocol: as §3, §4, §5

[9] = Kinetic parameters of enzymatic activity of AHAS mutants; assay type: biochemical, Arabidopsis thaliana; conditions: pyruvate varied 0-120 mM
Protocol: as §2, with “The coding sequences of the Arabidopsis thaliana wild-type and P197S-, W574L-, and S653N-mutant ALS genes were cloned into Novagen pET-32a(+) vectors and the vectors transformed into Escherichia coli AD494 according to the instructions of the manufacturer. Bacteria were” for “Bacteria were”
ALS assays were carried out in 96-well microtiter plates using a modification of the procedure described by Ray (1984), Plant Physiol 75:827-831. The reation mixture contained 20 mM potassium phosphate buffer pH 7.0, 20 mM sodium pyruvate, 0.45 mM thiamine-pyrophosphate, 0.45 mM MgCl2, 9 μM FAD, ALS enzyme and various concentrations of ALS inhibitors in a final volume of 90 μl. Assays were initiated by adding enzyme and terminated after 75 min incubation at 30° C. by the addition to 40 μl 0.5 M H2SO4. […] The pI50 values measured for the different mutant AHAS proteins and calculated for the mixtures of two different AHAS enzymes are shown in Table 3. […] Reaction velocities were tiffed to the Michalis-Menten equation with the XLFit curve fitting program.

[10] = Brassica napus, topical, 432 h, AI dose rate 60 gai/ha, read-out: % phytotox
[11] = measured, crude extract of E. coli expressed enzyme
[12] = Brassica napus, topical, 432 h, AI dose rate 12.5 gai/ha, read-out: % phytotox
[13] = Brassica napus, topical, 432 h, AI dose rate 10 gai/ha, read-out: % phytotox
[14] = Brassica napus, topical, 432 h, AI dose rate 5 gai/ha, read-out: % phytotox

| Molecule | IC50 [3, 11] [nM] | Resistance Factor W574L [3] | IC50 [4, 11] [nM] | Resistance Factor S653N [4] | IC50 [5, 11] [nM] | Resistance Factor P197S [5] | IC50 [6] [nM] | pI50 S653N & W574L [7] | Resistance Factor S653N & W574L [7] | pI50 P197S & W574L [8] | Resistance Factor P197S & W574L [8] | Km [9] [mM] | Vmax [9] | further results |
| --- | --- | --- | --- | --- | --- | --- | --- | --- | --- | --- | --- | --- | --- | --- |
| COc1cc(OC)nc(NC(=O)NS(=O)(=O)c2ncccc2C(=O)N(C)C)n1 [Nicosulfuron, nicosulfuron] | > 100000 | >794 | 2510 | 20 | 1000 | 8 | 126 | 4.3 | 398 | 4.5 | 251 |  |  | pest or weed control at 60 g/ha [1, 10]: 100%; pest or weed control at 60 g/ha [2, 10]: 55% |
| COc1cc(OC)n2nc(NS(=O)(=O)c3c(C(F)(F)F)ccnc3OC)nc2n1 [Pyroxsulam, pyroxsulam] |  | >39810 |  | 63 |  | 251 |  | 5.3 | 1995 | 4.8 | 6310 |  |  | % phytotox ([1]; AI dose rate 50 gai/ha): 99%; % phytotox ([2]; AI dose rate 50 gai/ha): 0%; pI50 W574L [3, 11]: <4; pI50 S653N [4, 11]: 6.8; pI50 P197S [5, 11]: 6.2; pI50 WT [6]: 8.6 |
| CCS(=O)(=O)c1cccnc1S(=O)(=O)NC(=O)Nc1nc(OC)cc(OC)n1 [Rimsulfuron, rimsulfuron] | 10000 | 316 | 20 | 1 | 398 | 13 | 31.6 | 6.3 | 16 | 5.7 | 63 |  |  | pest or weed control at 12.5 g/ha [1, 12]: 100%; pest or weed control at 12.5 g/ha [2, 12]: 68% |
| CCS(=O)(=O)c1nc2ccccn2c1S(=O)(=O)NC(=O)Nc1nc(OC)cc(OC)n1 [Sulfosulfuron, sulfosulfuron] | > 100000 | >3981 | 126 | 5 | 39800 | 1585 | 25.1 | 5.4 | 158 | 3.6 | 10000 |  |  | pest or weed control at 10 g/ha [1, 13]: 100%; pest or weed control at 10 g/ha [2, 13]: 3% |
| COC(=O)c1sccc1S(=O)(=O)NC(=O)Nc1nc(C)nc(OC)n1 [Thifensulfuron-Methyl, thifensulfuron-methyl] | 63100 | 1585 | 200 | 5 | 7940 | 200 | 39.8 | 5.4 | 100 | 4.6 | 631 |  |  | pest or weed control at 5 g/ha [1, 14]: 85%; pest or weed control at 5 g/ha [2, 14]: 0% |
| B1 |  |  |  |  |  |  |  |  |  |  |  | 2.1 ± 0.1 | 42.7 ± 1.3 ΔE/min mg |  |
| B2 |  |  |  |  |  |  |  |  |  |  |  | 6.9 ± 0.2 | 54.4 ± 2.8 ΔE/min mg |  |
| B3 |  |  |  |  |  |  |  |  |  |  |  | 5.5 ± 0.8 | 50.0 ± 6.1 ΔE/min mg |  |
| B4 |  |  |  |  |  |  |  |  |  |  |  | 5.8 ± 0.4 | 32.0 ± 1.4 ΔE/min mg |  |
